4 compounds from PubChem BioAssay (NCI) can be followed below.

The structures appear in SMILES notation.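 Test compounds were applied to cells in 96-well plates for 48 hours at 5 doses. At the GI50, growth is halved. Definition used: TGI = concentration required for complete inhibition of growth.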 A value given as a limit tells only on which side of the number the result lay.

Among the test systems are NCI-H23 lung; A498 renal; CCRF-CEM leukemia; SN12C renal; COLO 205 colon; LOX IMVI melanoma; KM12 colon; ACHN renal; RXF 393 renal; SK-MEL-28 melanoma.
Holding throughout (assay): inhibition of tumour cell growth, NCI panel, 48 h

As to `CC(Br)C(=O)NC(CO)C(=O)O` (stereo not given), the TGI with NCI-H23 lung, in the assay with A498 renal, with CCRF-CEM leukemia, with SN12C renal, in the assay on COLO 205 colon and in the assay with LOX IMVI melanoma was above 100000 nM each time. Also, the TGI in the assay with KM12 colon, in the assay with ACHN renal, with RXF 393 renal and in the assay with SK-MEL-28 melanoma was above 100000 nM throughout.
`CCNc1nc(O)c(/C=C2\C=Nc3ncccc32)s1`: the GI50 with NCI-H23 lung is 2570 nM; in the assay with A498 renal, 2120 nM; with CCRF-CEM leukemia it was 3590 nM; in the assay with SN12C renal it was 3580 nM; in the assay on COLO 205 colon, 3540 nM; in the assay on LOX IMVI melanoma, 3230 nM. For the same compound, the GI50 in the assay with KM12 colon was 3050 nM; with ACHN renal it was 2580 nM; in the assay with RXF 393 renal, 2050 nM; in the assay with SK-MEL-28 melanoma, 2720 nM. The TGI with NCI-H23 lung was 11500 nM; in the assay with A498 renal, 6150 nM; in the assay with CCRF-CEM leukemia, above 100000 nM; in the assay with SN12C renal, 37500 nM; with COLO 205 colon it was 13000 nM; in the assay on LOX IMVI melanoma it was 47500 nM. Moreover, the TGI in the assay on KM12 colon is 12400 nM; in the assay on ACHN renal, above 100000 nM; in the assay on RXF 393 renal, 4290 nM; in the assay on SK-MEL-28 melanoma, 13800 nM.
Consider `CCN=c1sc2c(n1NC(=O)c1cc3ccc1CCc1ccc(cc1)CC3)C(=O)c1ccccc1C2=O`, for which the GI50 with NCI-H23 lung is 589 nM; in the assay with A498 renal, 4810 nM; in the assay with CCRF-CEM leukemia, 1010 nM; in the assay on SN12C renal, 520 nM; in the assay on COLO 205 colon, 1560 nM; in the assay with LOX IMVI melanoma, 478 nM. The GI50 with KM12 colon is 1020 nM; in the assay with ACHN renal, 492 nM; in the assay on RXF 393 renal, 504 nM; in the assay with SK-MEL-28 melanoma, 663 nM. Also, the TGI in the assay on NCI-H23 lung was 1640 nM; with A498 renal, 20900 nM; in the assay with CCRF-CEM leukemia it was 33300 nM; with SN12C renal it was 1060 nM; with COLO 205 colon, 3710 nM; in the assay on LOX IMVI melanoma, 1240 nM. Besides, the TGI with KM12 colon came out at 3830 nM; in the assay on ACHN renal it was 965 nM; in the assay on RXF 393 renal it was 976 nM; in the assay with SK-MEL-28 melanoma it was 1180 nM.
Regarding `CCN1C(=S)N(CC)C2C1NC(=S)N2/N=C/C=C/c1ccccc1OC` (stereo not given), the GI50 in the assay on NCI-H23 lung is 466 nM; in the assay with A498 renal, 83.1 nM; in the assay on CCRF-CEM leukemia, 346 nM; in the assay on SN12C renal it was 670 nM; with COLO 205 colon, 312 nM; in the assay on LOX IMVI melanoma it was 488 nM. The GI50 in the assay on KM12 colon is 270 nM; with ACHN renal, 464 nM; in the assay on RXF 393 renal, 92 nM; in the assay with SK-MEL-28 melanoma, 1110 nM. The TGI in the assay on NCI-H23 lung was above 100000 nM; with A498 renal, 715 nM; with CCRF-CEM leukemia, above 100000 nM; in the assay on SN12C renal it was 24800 nM; in the assay on COLO 205 colon it was 1270 nM; in the assay on LOX IMVI melanoma, 12700 nM. Besides, the TGI was 15800 nM with KM12 colon, 40500 nM in the assay with ACHN renal, 498 nM in the assay with RXF 393 renal and above 100000 nM in the assay with SK-MEL-28 melanoma.
